Assay results as given in article PMC4485890 (PLoS ONE, 2015).
Like-named read-outs stand apart in the source and are kept apart here.

Columns and labels:
human NUDT16 (wild-type) [1] = target: T1, human NUDT16 (wild-type) (Homo sapiens, UniProt Q96DE0); test: Binding of products to NUDT16 by isothermal titration calorimetry
Description: NUDT16 was dialyzed against 20 mM Hepes pH 7.5, 300 mM NaCl, 20 mM MgCl2, 10% glycerol, and 0.5 mM TCEP in a Slide-a-Lyzer cassette (7kDa cut-off). […] The buffer compositions in the cell and the syringe were carefully matched such that the sole difference between them was either the protein or the nucleotide content.
Titrations were performed at 25°C using 32 injections of 1.2μl of nucleotide solutions (following a 1μl pre-injection) spaced by 120 sec into the 200 μl experimental cell on a iTC200 MicroCal instrument (GE Healthcare) at the Karolinska Institutet/SciLifeLab Protein Science Core Facility (http://psf.ki.se).
Binding isotherm and thermodynamic constants were determined through fitting experimental data against a one-site binding-model (number of sites, ΔH and K a being unconstrained during refinement) on Origin software v7.0552 (OriginLab).

human NUDT16 (wild-type) [2] = target: T1, human NUDT16 (wild-type); test: Determination of kinetic parameters of NUDT16 wild-type (malachite green phosphate release assay); type: biochemical; set-up: 6-His tag followed by TEV protease site (N, cleaved yes); made in house; host or cells: E. coli Rosetta pLysS; conditions: for Hydrolysis by NUDT16 (qualitative): malachite green assay, sub-μM K m not determinable; for k cat/K m, This work / k cat, This work / K m, This work: Michaelis-Menten fit; for k cat, This work / K m, This work: substrate hydrolysis, 37°C; for K m, This work: buffer pH 7.5, 20 mM MgCl2
Excerpt: To establish an assay to look for product inhibition and to understand the role of the different substituents present on the purine ring, we first wanted to assess the activity of our protein preparations and compare it to the results obtained by Iyama et al. on NUDT16 activity on different nucleotides. Contrary to the results presented in the structural biology part, we used wild-type NUDT16 (no A22V mutation) for these activity studies. Using a malachite green based activity assay for quantification of phosphate release, we determined the kinetic parameters of NUDT16 hydrolysis when incubated in the presence of ITP, XDP and ADP (S3A–S3C Fig), all of which have a suitable K m for assessment with this assay and for inhibition studies (low μM range). The results are summarized and compared in Table 1 with the literature values. […] Our K m values for XDP and ITP are in the same range as data reported in Iyama et al.. Discrepancies between the two studies can be explained by differences in the detection methods (HPLC or malachite green assay), the protein constructs (with or without His-tag) and the buffer conditions. […] However, the k cat for ADP was 15 times higher, leading to a catalytic efficiency in the same range as the one determined for XDP and ITP. Such a correlation between low affinity K m values and low apparent rate constant values is also noticeable when looking more broadly at available data for the purine based substrates.
(§1) Each sample point was obtained in the presence of 1 μM of NUDT16 (0.1 μM when assayed for activity against ITP) and various concentrations of substrates in buffer C (50 mM Tris-HCl pH 7.5, 150 mM NaCl, 20 mM MgCl2, 0.005% Tween-20, and 0.5 mM TCEP). When ITP was used as a substrate, 0.1 unit of yeast inorganic pyrophosphatase (Sigma-Aldrich) was added to the well. The activity assay was performed in 100 μl in a 96-well plate at 37°C and was stopped by addition of 25 μl of Malachite Green Working Solution (prepared as described in [42]). Plate was kept under shaking at room-temperature for 15 min, then 100 μl were transferred into a 384-well plate and the measurement of the absorbance at 630nm was carried out either on a CLARIOstar (BMG LABTECH) or a Victor^3 (PerkinElmer) reader.
(§2) The amount of free phosphate produced during the hydrolysis was estimated by comparison with a standard curve.
(§3) Experiments were performed in triplicate and data analysis was done on GraphPad Prism version 5.01 for Windows (GraphPad Software, San Diego California USA, www.graphpad.com).
(§4) For each assayed substrate, starting substrate concentrations (varying from 0.5 to 240 μM) and incubation times (from 20 to 240 min) were selected in order for the quasi-steady-state assumption to remain valid.

NUDT16 = conditions: cited from earlier work; for K m, Ref. 14 / k cat, Ref. 14 / k cat/K m, Ref. 14: literature values, ref 14 (Iyama et al)
NUDT16 A22V = target: T2, NUDT16 A22V (Homo sapiens, UniProt Q96DE0, A22V); test: Determination of kinetic parameters of NUDT16 A22V (malachite green assay); type: biochemical; conditions: A22V mutant, Michaelis-Menten fit
T2 construct: 6-His tag followed by TEV protease site (N, cleaved yes); made in house; host or cells: E. coli Rosetta
T2 sequence (Q96DE0 whole entry A22V): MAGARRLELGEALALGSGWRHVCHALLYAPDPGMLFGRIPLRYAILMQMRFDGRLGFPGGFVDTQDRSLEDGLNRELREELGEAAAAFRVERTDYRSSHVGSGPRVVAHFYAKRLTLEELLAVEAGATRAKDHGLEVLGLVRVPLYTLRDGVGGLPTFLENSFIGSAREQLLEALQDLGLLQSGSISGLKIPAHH
Description: It is worth noting that the protein construct used to obtain the two NUDT16 crystal structures harbors an A22V mutation (see Material and Methods section). […] This was confirmed by comparing the kinetic parameters of NUDT16 wild-type with those obtained with the A22V mutation (S1 Table) when NUDT16 was assayed against XDP and ITP. […] Detailed schemes of all interactions between protein, nucleotide and metals are shown on Fig 3C–3E.
as §1, §2, §3, §4
The procedure was identical whether NUDT16 wild-type or A22V was used in the assay.

[3] = ITC, 25°C, one binding-site model

T1 sequence (Q96DE0 whole entry): as the sequence (Q96DE0 whole entry A22V) above, with V22A counted along it

Compound	K m, Ref. 14 (NUDT16)	k cat, Ref. 14 (NUDT16)	k cat/K m, Ref. 14 (NUDT16)	k cat/K m, This work (human NUDT16 (wild-type) [2]; NUDT16 wild-type)	k cat, This work (human NUDT16 (wild-type) [2]; NUDT16 wild-type)	K m, This work (human NUDT16 (wild-type) [2]; NUDT16 wild-type)	further results
Nc1nc(=O)c2ncn([C@@H]3O[C@H](COP(=O)(O)O)[C@@H](O)[C@H]3O)c2[nH]1 [GMP]							Kd (human NUDT16 (wild-type) [1]): 34.25 ± 0.05 µM; N sites (human NUDT16 (wild-type) [1]; [3]): 1.080 ± 0.015
Nc1nc2c(ncn2[C@@H]2O[C@H](COP(=O)(O)OP(=O)(O)O)[C@@H](O)[C@H]2O)c(=O)[nH]1 [GDP]	0.33 µM	0.00863 s⁻¹	26.1 10^3 s^-1M^-1				Hydrolysis by NUDT16 (qualitative) (human NUDT16 (wild-type) [2]): process efficiently
Nc1ncnc2c1ncn2[C@@H]1O[C@H](COP(=O)(O)OP(=O)(O)O)[C@@H](O)[C@H]1O [ADP]				0.52 ± 0.10 10^3 s^-1M^-1	0.0959 ± 0.00897 s⁻¹	185 ± 32 µM	K m for ADP relative to XDP (times higher) (human NUDT16 (wild-type) [2]; NUDT16 wild-type): about 30 times; k cat for ADP relative to XDP (times higher) (human NUDT16 (wild-type) [2]; NUDT16 wild-type): 15 times
Nc1ncnc2c1ncn2[C@@H]1O[C@H](COP(=O)(O)O)[C@@H](O)[C@H]1O [AMP]							Kd (human NUDT16 (wild-type) [1]; ITC, 25°C, one binding-site model, 20 mM MgCl2, pH 7.5): too low for establishing good binding constants
O=c1[nH]c(=O)c2ncn([C@@H]3O[C@H](COP(=O)(O)O)[C@@H](O)[C@H]3O)c2[nH]1 [XMP]							Kd (human NUDT16 (wild-type) [1]): 39.06 ± 0.07 µM; N sites (human NUDT16 (wild-type) [1]; [3]): 0.821 ± 0.024
O=P(O)(O)OP(=O)(O)OC[C@H]1O[C@@H](n2cnc3c(O)ncnc32)[C@H](O)[C@@H]1O [IDP, inosine diphosphate]	0.066 µM	0.0155 s⁻¹	251 10^3 s^-1M^-1				Hydrolysis by NUDT16 (qualitative) (human NUDT16 (wild-type) [2]): process efficiently; K m for IDP relative to ITP (times lower) (NUDT16; ref 14 (Iyama et al.)): 350 times
O=c1[nH]c(=O)c2ncn([C@@H]3O[C@H](COP(=O)(O)OP(=O)(O)O)[C@@H](O)[C@H]3O)c2[nH]1 [XDP]	15.7 µM	0.0433 s⁻¹	2.76 10^3 s^-1M^-1	0.99 ± 0.23 10^3 s^-1M^-1	0.00613 ± 0.0013 s⁻¹	6.22 ± 0.55 µM	Km (NUDT16 A22V): 9.7 ± 1.25 µM; kcat, NUDT16 A22V (NUDT16 A22V): 0.00515 ± 0.0002 s⁻¹
O=c1[nH]cnc2c1ncn2[C@@H]1O[C@H](COP(=O)(O)OP(=O)(O)OP(=O)(O)O)[C@@H](O)[C@H]1O [ITP]	22.1 µM	0.051 s⁻¹	2.31 10^3 s^-1M^-1	1.55 ± 0.20 10^3 s^-1M^-1	0.0127 ± 0.0005 s⁻¹	8.23 ± 1.01 µM	Km (NUDT16 A22V): 12.8 ± 1.46 µM; kcat, NUDT16 A22V (NUDT16 A22V): 0.00657 ± 0.000217 s⁻¹
